# Read-outs that look alike come from different tables or passages of the source.
# Legend:
# Assay type in all cases: cell-based
# [1] = system: LPS-mediated MIP-1α production in THP-1 cells; experiment: LPS-mediated MIP-1α production in THP-1 cells; conditions: Homo sapiens; 12.5 μM test compound; THP-1 cells, LPS 1 μg/ml; NI = no inhibition
# Protocol: (§1) THIAA derivatives synthesized in Examples 1-19 were dissolved in dimethyl sufoxide (DMSO) and stored at −20° C. LPS was purchased from Sigma Chemicals (St. Louis, Miss.).
# (§2) The effect of the THIAA derivatives on LPS-mediated MMP-9, IL-1β, ([…], MCP-1, RANTES, and MIP-1α was evaluated in THP-1 cells. Stimulation of THP-1 cells with LPS (1 μg/ml) activated the production of MMP-9, IL-1β, MCP-1, RANTES, and MIP-1α.
# (§3) Results are summarized in Table 2, with data represented as % inhibition of inflammatory mediator production.
# [2] = system: LPS-mediated RANTES production in THP-1 cells; experiment: LPS-mediated RANTES production in THP-1 cells; conditions: Homo sapiens; 12.5 μM test compound; THP-1 cells, LPS 1 μg/ml; NI = no inhibition
# Protocol: as §1, §2, §3
# [3] = target: T1, PPARγ (Homo sapiens, UniProt P37231); experiment: PPARγ reporter assay (INDIGO Biosciences); conditions: 20 h
# T1 sequence (P37231 1-505): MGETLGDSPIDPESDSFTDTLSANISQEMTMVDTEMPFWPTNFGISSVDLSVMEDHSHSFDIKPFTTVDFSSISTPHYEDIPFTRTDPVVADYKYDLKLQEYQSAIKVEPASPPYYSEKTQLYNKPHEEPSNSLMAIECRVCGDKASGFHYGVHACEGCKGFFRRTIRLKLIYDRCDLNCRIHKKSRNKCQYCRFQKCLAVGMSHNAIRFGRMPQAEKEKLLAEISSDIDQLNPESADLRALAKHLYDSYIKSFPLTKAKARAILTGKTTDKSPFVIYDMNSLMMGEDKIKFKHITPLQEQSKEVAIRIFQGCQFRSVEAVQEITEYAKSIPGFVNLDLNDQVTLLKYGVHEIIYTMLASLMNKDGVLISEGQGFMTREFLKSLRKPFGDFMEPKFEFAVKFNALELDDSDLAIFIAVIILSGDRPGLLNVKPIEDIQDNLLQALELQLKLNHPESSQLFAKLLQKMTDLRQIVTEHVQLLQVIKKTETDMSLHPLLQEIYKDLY
# Protocol: (§4) The functional effect of THIAA derivatives on PPARα and PPARγ activity was evaluated using a PPAR reporter assay (INDIGO Biosciences, Pa.). This assay utilizes non-human mammalian cells engineered to provide constitutive high level expression of PPARα, or PPARγ and containing a luciferase report gene specific to the appropriate PPAR. Following activation by agonist binding, PPAR induces expression of the luciferase reporter gene. Luciferase activity therefore provides a surrogate for measuring PPAR activity in agonist-treated cells.
# (§5) 0.1% DMSO was used as a solvent control for each assay. Plates were incubated for 20 hours in a humidified incubator at 37° C. and 5% CO2. After incubation, the cell medium was discarded and the cells were treated with 100 μL of luciferase detection reagent for 15 minutes. Plates were analyzed using a luminometer (Victor2, Perkin Elmer). Average relative light unit (RLU) and standard deviation were measured.
# [4] = system: LPS-mediated MCP-1 production in THP-1 cells; experiment: LPS-mediated MCP-1 production in THP-1 cells; conditions: Homo sapiens; 12.5 μM test compound; THP-1 cells, LPS 1 μg/ml; NI = no inhibition
# Protocol: as §1, §2, §3
# [5] = system: LPS-mediated inflammatory mediators in RAW264.7 and THP-1 cells; experiment: Mean inhibition across all six inflammatory mediators; conditions: 12.5 μM test compound
# Protocol: (§6) The effect of the THIAA derivatives on LPS-mediated prostaglandin E2 (PGE2) and nitric oxide (NO) production was evaluated in a RAW264.7 murine macrophage model. The RAW 264.7 cell line was purchased from ATCC (Manassas, Va.) and maintained according to their instructions. Cells were grown and subcultured in 96-well plates at a density of 8×10^4 cells per well, and reached 80-90% confluence the next day. THIAA derivatives were added to the cells in serum-free medium at a final concentration of 0.1% DMSO. Following one hour of incubation with the THIAA derivatives, LPS (1 μg/ml) or DMEM medium alone was added to the cells and incubation was continued for 6 hours. Stimulation of RAW 264.7 cells with LPS (1 μg/ml) for 6 hours activated the production of PGE2 and NO. Supernatant media was collected for measurement of PGE2 levels. For NO, incubations were continued overnight. Supernatant media was collected for measurement of NO levels after 16 hours of stimulation. PGE2 levels were measured using assay kits from Assay Designs, (Ann Arbor, Mich.) and NO levels were measured using assay kits from Cayman Chemicals (Ann Harbor, Mich.).
# as §2, §3
# Mean inhibition across all six inflammatory mediators was calculated for each of the THIAA derivatives.
# [6] = system: LPS-mediated IL-6 production in THP-1 cells; experiment: LPS-mediated IL-6 production in THP-1 cells; conditions: Homo sapiens; 12.5 μM test compound; THP-1 cells, LPS 1 μg/ml; NI = no inhibition
# Protocol: as §1, §2, §3
# [7] = target: T2, PPARα (Homo sapiens, UniProt Q07869); experiment: PPARα reporter assay (INDIGO Biosciences); conditions: for Emax at 12.5 µM: read-out: PPARα % GW590735 (20.6 nM)
# T2 sequence (Q07869 1-468): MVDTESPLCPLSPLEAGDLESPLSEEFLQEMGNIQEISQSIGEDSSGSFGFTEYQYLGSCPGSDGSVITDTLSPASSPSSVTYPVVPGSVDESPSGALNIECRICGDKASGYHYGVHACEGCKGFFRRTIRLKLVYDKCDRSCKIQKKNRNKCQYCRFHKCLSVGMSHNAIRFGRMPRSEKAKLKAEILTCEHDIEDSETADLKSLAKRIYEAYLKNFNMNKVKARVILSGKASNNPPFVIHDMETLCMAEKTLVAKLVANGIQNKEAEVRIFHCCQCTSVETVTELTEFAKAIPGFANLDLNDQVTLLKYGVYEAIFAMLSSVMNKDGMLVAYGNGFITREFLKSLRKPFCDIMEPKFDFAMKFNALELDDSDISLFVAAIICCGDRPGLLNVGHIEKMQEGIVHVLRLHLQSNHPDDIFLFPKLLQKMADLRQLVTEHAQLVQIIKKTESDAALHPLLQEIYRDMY
# Protocol: as §4, §5
# [8] = system: LPS-mediated nitric oxide (NO) production in RAW264.7 cells; experiment: LPS-mediated NO production in RAW264.7 murine macrophage model; conditions: Mus musculus, 12.5 μM test compound, LPS 1 μg/ml, NI = no inhibition
# Protocol: as §1, §6, §3
# [9] = system: LPS-mediated prostaglandin E2 (PGE2) production in RAW264.7 cells; experiment: LPS-mediated PGE2 production in RAW264.7 murine macrophage model; conditions: 12.5 μM test compound, LPS 1 μg/ml, NI = no inhibition; for inhibition at 12.5 µM: Mus musculus, RAW264.7, 6 h
# Protocol: as §1, §6, §3
# [10] = read-out: PPARγ % rosiglitazone (500 nM), 12.5 μM test compound, luciferase reporter cells, 20 hours, activity compared to rosiglitazone
# [11] = 12.5 μM test compound, luciferase reporter cells, 20 hours, activity compared to GW590735
SMILES,inhibition at 12.5 µM [1],inhibition at 12.5 µM [2],"Emax at 12.5 µM [3, 10]",inhibition at 12.5 µM [4],inhibition at 12.5 µM [5],inhibition at 12.5 µM [6],"Emax at 12.5 µM [7, 11]","inhibition at 12.5 µM ([8]; RAW264.7, 16 h)",inhibition at 12.5 µM [9],"PPARα % GW590735 (20.6 nM) [7, 11]",Emax at 12.5 µM ([3]; read-out: PPARγ % rosiglitazone (500 nM)),Emax at 12.5 µM ([7]; 20 h),inhibition at 12.5 µM ([8]; 16 hours),% inhibition of PGE2 production ([9]; 6 hours)
"CO/N=C(/CC(C)C)C1=C(O)[C@](O)(C(O)CCC(C)C)[C@@H](CCC(C)C)C1=O (stereo partly drawn) [KDT0005, (4R,5R)-3,4-dihydroxy-4-(1-hydroxy-4-methylpentyl)-2-(N-methoxy-3-methylbutanimidoyl)-5-(3-methylbutyl)cyclopent-2-en-1-one]",20%,25%,< 5%,38%,< 20%,< 20%,< 5%,< 0%,< 0%,,,,,
"C#CCCOC(=O)O[C@]1(C(=O)CCC(C)C)C(O)=C(C(=O)CC(C)C)C(=O)[C@@H]1CCC(C)C [KDT0035, but-3-yn-1-yl (1S,5R)-2-hydroxy-3-(3-methylbutanoyl)-5-(3-methylbutyl)-1-(4-methylpentanoyl)-4-oxocyclopent-2-en-1-yl carbonate]",82%,84%,43%,95%,77%,65%,40%,44%,89%,dual PPARα and PPARγ agonists,,,,
"CCCCCCCCCC(=O)O[C@]1(C(=O)CCC(C)C)C(O)=C(C(=O)C(C)C)C(=O)[C@@H]1CCC(C)C [KDT0036, (1S,5R)-2-hydroxy-5-(3-methylbutyl)-1-(4-methylpentanoyl)-3-(2-methylpropanoyl)-4-oxocyclopent-2-en-1-yl decanoate]",25%,88%,≥ 5%,98%,73%,83%,< 5%,97%,45%,no effect,,,,
"CC(C)CCC(=O)[C@@]1(O)C(O)=C(C(=O)CC(C)C)C(=O)[C@H]1CCC(C)C [KDT700, (4S,5S)-3,4-dihydroxy-2-(3-methylbutanoyl)-5-(3-methylbutyl)-4-(4-methylpentanoyl)cyclopent-2-en-1-one]",36%,64%,< 5%,88%,34%,< 20%,< 5%,< 0%,< 20%,,,,,
"CC(C)CCC(=O)[C@@]1(O)C([O-])=C(C(=O)CC(C)C)C(=O)[C@@H]1CCC(C)C.[K+] (stereo in doubt) [KDT501, Potassium salt of (+)-KDT500]",62%,77%,,77%,48%,49%,,,,,31%,< 5%,23%,No inhibition (NI)
"CC(C)=CC[C@H]1C(=O)C(C(=O)CC(C)C)=C(O)[C@]1(O)C(=O)/C=C/C(C)(C)O [KDT0040, (4S,5R)-3,4-dihydroxy-4-[(2E)-4-hydroxy-4-methylpent-2-enoyl]-2-(3-methylbutanoyl)-5-(3-methylbut-2-en-1-yl)cyclopent-2-en-1-one]",< 0%,18%,< 5%,53%,25%,< 0%,< 5%,26%,54%,,,,,
"CC(C)CCC(=O)[C@@]1(O)C(=O)/C(=C(\CC(C)C)NCCO)C(=O)[C@@H]1CCC(C)C [KDT0017, (4R,5R)-4-hydroxy-2-{1[(2-hydroxyethyl)amino]-3-methylbutylidene}-5-(3-methylbutyl)-4-(4-methylpentanoyl)cyclopentane-1,3-dione]",< 0%,< 0%,< 5%,80%,23%,50%,< 5%,< 20%,< 0%,,,,,
"CC(C)CCC(O)[C@@]1(O)C(O)=C(C(=O)CC(C)C)C(=O)[C@@H]1CCC(C)C (stereo partly drawn) [KDT0039, (4R,5R)-3,4-dihydroxy-4-(1-hydroxy-4-methylpentyl)-2-(3-methylbutanoyl)-5-(3-methylbutyl)cyclopent-2-en-1-one]",23%,58%,< 5%,50%,26%,22%,< 5%,< 20%,< 0%,,,,,
"CC(C)CC[C@H]1C(=O)C(C(=O)CC(C)C)=C(O)[C@]1(O)C(=O)CCC(C)C(=O)O (stereo partly drawn) [KDT0038, 5-[(1S,5R)-1,2-dihydroxy-3-(3-methylbutanoyl)-5-(3-methylbutyl)-4-oxocyclopent-2-en-1-yl]-2-methyl-5-oxopentanoic Acid]",< 0%,< 20%,< 5%,46%,< 20%,< 0%,< 5%,< 0%,< 0%,,,,,

# Reference: patent US10343977B2, “Tetrahydro-isohumulone derivatives, methods of making and using” (KINDEX PHARMACEUTICALS, INC., priority 2012, dated 2019)
